Test results as given in patent US7794712B2, “Production of mutant strain of Aspergillus fumigatus, method of assay for inhibiting siderophore biosynthesis and diagnostic method for detecting likely Aspergillus fumigatus infection” (priority 2004, dated 2010).
“And” between values parts separate entries of the source, which are not always exact repeats. Equal entries are not always repeated.

Tests used:
[1] = tested on: A. fumigatus 13073; assay: Siderophore secretion inhibitor assay (A440 after FeCl3 addition); assay type: cell-based, Aspergillus fumigatus; conditions: for A440 (ferrated siderophores): 3 days; for Siderophore production as measured by A440: Neilands' medium without citrate, 48 hours
From the text: In this example 96-well sterile polystyrene filter plates as described above with white Duropore membranes at the base of the plate (Millipore) were used. The plates include a thick plastic layer under the wells, which has a one-way valve function that directs fluid into a receiving 96-well plate when the filter plate is subjected to a vacuum manifold or a centrifugal force. This layer can be peeled off if the membranes are to be sampled (punched) later.
Cultures were set up in the filter plates, with controls and inhibitors to be tested. After inclubation, culture fluid was pulled into a 96-well receiver plate, using the Beckman centrifuge and a JS 5.3 rotor designed to take 96-well plates. FeCl3 was added to the receiver plates, and A430 (general siderophores) or A440 (max for TAF) was read. Growth was scored in the plate by reading A600.
To test this method, different antibiotics were used to show inhibition of siderophore production by A. fumigatus 13073, as no inhibitors for the SidA gene product are currently known. Suitable ranges of concentrations of amphotericin B (fungizone), hygromycin, and nystatin were calculated based on the literature. Spores were harvested from A. fumigatus 13073 into PBS Tween, then washed once with PBS and counted. They were then diluted into Neilands' medium (without citrate) to give solutions of 2×10^5 and 2×10^6/ml. 100 μl of 2× spores and 100 μl of 2× antibiotics to yield a volume of 200 μl of Neilands' medium in each well, with the desired final concentrations of spores, 10^5 or 10^6/ml.
Antibiotics were prepared as follows. Amphotericin B came as a liquid solution, 250 µg/ml. […] Therefore 0, 0.125, 0.25, 0.5, 1 and […] final concentration was used. Nystatin was stored it in ˜1 mg dry aliquots at −20 C, and was prepared at a concentration of 2 mg/ml in DMSO for dilution into Neilands' media. According to reported information, nystatin should be effective at 1.5 to 6.5 µg/ml; therefore, 0, 0.5, 1, 5, 10 and 50 µg/ml were used as the final concentrations. Hygromycin gold stock was in solution at 100 mg/ml, and 0, 25, 50, 100, 150 and 200 µg/ml were used as the final concentrations in Neilands' medium. Plates were incubated for 3 days at 37° C. with shaking.
To test for siderophores, 20 μL of a solution of 2 mM FeCl3 in 10 mM HCl was added to each well in the receiver plates and the A440 was recorded on a plate reader. […] An increase in A440 indicates a more intense orange-red colour that develops in the presence of ferrated siderophores. […] Because 3-day incubation produces conidia, shorter incubation periods may be preferable.
(§1) Three identical plates were set up: one filter plate and two sterile clear 96-well plates. The clear plates were used to score growth, and the filter plate was used to detect siderophores. Columns 1-6 contained Neilands' medium without citrate and amphotericin 0-2 at g/ml. Columns 7-12 contained Neilands' medium with citrate and amphotericin at […]. The rows were set up with A. fumigatus as described above, but two sets of each were set up to be in the two plates. The spores from the previous experiment were stored at −20° C. in PBS, in siliconized tubes, at 2×10^8 conidia/ml, to facilitate these experiments. Plates were incubated for 48 hours at 37° C. without shaking.
(§2) The filter plate was centrifuged at 1000×g for 10 minutes and the liquids caught in a clear non-sterile plate, to which FeCl3 was added. The plate was allowed to sit and develop orange colour, and was then read at 440 nm. The clear plates (one without Fe and one with Fe added to growth medium from the beginning) were read at 600 nm (A600). In the result, iron enhanced conidiation. Some wells of the filter plate were lightly conidiated and would not drain. These were hand pipetted.

[2] = tested on: invasive aspergillosis; conditions: with prophylaxis and treatment; cited from earlier work
[3] = tested on: A. fumigatus 13073; assay: Growth scored by A600 in 96-well plates with or without iron; assay type: cell-based, Aspergillus fumigatus; conditions: 48 hours
Method: Siderophore production and growth was scored by using one antibiotic (amphotericin B) with two types of media (Neilands' with and without citrate), using the same spore concentrations as given above, but a shorter incubation time. Generally, this portion of the assay would be carried out when there was a potential inhibitor which scored positively in the first round of screening. Growth is scored with and without iron in the media.
as §1, §2

C[C@@H]1[C@H](O)[C@@H](C)/C=C/C=C/C=C/C=C/C=C/C=C/C=C/[C@H](O[C@@H]2O[C@H](C)[C@@H](O)[C@H](N)[C@@H]2O)C[C@@H]2O[C@](O)(C[C@@H](O)C[C@@H](O)[C@H](O)CC[C@@H](O)C[C@@H](O)CC(=O)O[C@H]1C)C[C@H](O)[C@H]2C(=O)O [amphotericin B]
A440 (ferrated siderophores) ([1]; amphotericin B 0.13 μg/ml, 1.00E+05 spores/ml): 0.178 and 0.156 and 0.145 | A440 (ferrated siderophores) ([1]; amphotericin B 0.13 μg/ml, 1.00E+06 spores/ml): 0.211 and 0.200 | Siderophore production as measured by A440 ([1]; amphotericin B 0.13 μg/ml, 100000 spores/ml): 0.047 and 0.042 | A440 (ferrated siderophores) ([1]; amphotericin B 0.25 μg/ml, 1.00E+05 spores/ml): 0.038 and 0.039 and 0.040 | A440 (ferrated siderophores) ([1]; amphotericin B 0.25 μg/ml, 1.00E+06 spores/ml): 0.085 and 0.168 and 0.130 | Siderophore production as measured by A440 ([1]; amphotericin B 0.25 μg/ml, 100000 spores/ml): 0.044 and 0.043 | Siderophore production as measured by A440 ([1]; amphotericin B 0.25 μg/ml, 1000000 spores/ml): 0.047 and 0.046 and 0.048 | A440 (ferrated siderophores) ([1]; amphotericin B 0.50 μg/ml, 1.00E+05 spores/ml): 0.042 and 0.040 and 0.039 | A440 (ferrated siderophores) ([1]; amphotericin B 0.50 μg/ml, 1.00E+06 spores/ml): 0.038 and 0.042 and 0.035 | Siderophore production as measured by A440 ([1]; amphotericin B 0.50 μg/ml, 100000 spores/ml): 0.042 and 0.043 and 0.046 | Siderophore production as measured by A440 ([1]; amphotericin B 0.50 μg/ml, 1000000 spores/ml): 0.043 and 0.042 | A440 (ferrated siderophores) ([1]; amphotericin B 1.00 μg/ml, 1.00E+05 spores/ml): 0.032 and 0.039 and 0.036 | Siderophore production as measured by A440 ([1]; amphotericin B 1 μg/ml, 100000 spores/ml): 0.042 and 0.041 and 0.045 | Siderophore production as measured by A440 ([1]; amphotericin B 1 μg/ml, 1000000 spores/ml): 0.05 and 0.047 | A440 (ferrated siderophores) ([1]; amphotericin B 2.00 μg/ml, 1.00E+05 spores/ml): 0.041 and 0.034 | A440 (ferrated siderophores) ([1]; amphotericin B 2.00 μg/ml, 1.00E+06 spores/ml): 0.036 and 0.034 | Siderophore production as measured by A440 ([1]; amphotericin B 2 μg/ml, 100000 spores/ml): 0.045 | Siderophore production as measured by A440 ([1]; amphotericin B 2 μg/ml, 1000000 spores/ml): 0.044 and 0.043 and 0.045 | Mortality rate if the disease spreads to the central nervous system [2]: ~100% | Mortality rate, pulmonary aspergillosis [2]: 65% | Effect of iron on growth inhibition ([3]; Neilands' medium with vs without Fe): addition of iron did not change the pattern of growth inhibition | Growth as measured by A600 ([3]; amphotericin B 0.13 μg/ml, 1000000 spores/ml, Neilands' medium without citrate or Fe): 0.137 and 0.113 and 0.168 | Growth as measured by A600 ([3]; amphotericin B 0.13 μg/ml, 1000000 spores/ml, Neilands' medium without citrate with Fe): 0.139 and 0.113 and 0.169 | Growth as measured by A600 ([3]; amphotericin B 0.25 μg/ml, 100000 spores/ml, Neilands' medium without citrate or Fe): 0.068 and 0.083 and 0.076 | Growth as measured by A600 ([3]; amphotericin B 0.25 μg/ml, 100000 spores/ml, Neilands' medium without citrate with Fe): 0.067 and 0.091 and 0.076 | Growth as measured by A600 ([3]; amphotericin B 0.25 μg/ml, 1000000 spores/ml, Neilands' medium without citrate or Fe): 0.111 and 0.126 and 0.157 | Growth as measured by A600 ([3]; amphotericin B 0.25 μg/ml, 1000000 spores/ml, Neilands' medium without citrate with Fe): 0.11 and 0.126 and 0.157 | Growth as measured by A600 ([3]; amphotericin B 0.50 μg/ml, 100000 spores/ml, Neilands' medium without citrate or Fe): 0.035 | Growth as measured by A600 ([3]; amphotericin B 0.5 μg/ml, 100000 spores/ml, Neilands' medium without citrate with Fe): 0.035 and 0.034 | Growth as measured by A600 ([3]; amphotericin B 0.50 μg/ml, 1000000 spores/ml, Neilands' medium without citrate or Fe): 0.038 and 0.039 and 0.037 | Growth as measured by A600 ([3]; amphotericin B 0.5 μg/ml, 1000000 spores/ml, Neilands' medium without citrate with Fe): 0.038 and 0.039 | Growth as measured by A600 ([3]; amphotericin B 1 μg/ml, 100000 spores/ml, Neilands' medium without citrate or Fe): 0.035 and 0.036 | Growth as measured by A600 ([3]; amphotericin B 1 μg/ml, 100000 spores/ml, Neilands' medium without citrate with Fe): 0.035 | Growth as measured by A600 ([3]; amphotericin B 1 μg/ml, 1000000 spores/ml, Neilands' medium without citrate or Fe): 0.039 and 0.038 | Growth as measured by A600 ([3]; amphotericin B 1 μg/ml, 1000000 spores/ml, Neilands' medium without citrate with Fe): 0.039 | Growth as measured by A600 ([3]; amphotericin B 2 μg/ml, 100000 spores/ml, Neilands' medium without citrate or Fe): 0.035 and 0.036 | Growth as measured by A600 ([3]; amphotericin B 2 μg/ml, 100000 spores/ml, Neilands' medium without citrate with Fe): 0.035 | Growth as measured by A600 ([3]; amphotericin B 2 μg/ml, 1000000 spores/ml, Neilands' medium without citrate or Fe): 0.038 and 0.039 | Growth as measured by A600 ([3]; amphotericin B 2 μg/ml, 1000000 spores/ml, Neilands' medium without citrate with Fe): 0.038 and 0.039
